Publication PMC4362760, “JAK2^V617F Drives Mcl-1 Expression and Sensitizes Hematologic Cell Lines to Dual Inhibition of JAK2 and Bcl-xL” (PLoS ONE, 2015)

Key:
MV4;11 cells = assay: alamarBlue cell viability, JAKi-I/ABT-263 combination, 72 hr, MV4;11; format: cell-based; conditions: MV4;11, 72h, Jaki-1 0 uM
Method: Transfection of siRNAs was performed using Lipofectamine RNAiMAX according to the manufacturer’s recommendations. […] Caspase-3 activity was determined using the Caspase-GLO 3/7 Assay (Promega) in parallel with the CellTiter-GLO viability assay (Promega). The data are expressed as Caspase-3/7 activity divided by cell viability.
Caspase-3 activity was determined at each time point. Data are from duplicate samples and are representative of at least three independent experiments. (D-G) Cells were treated in combination as indicated, and cell viability was determined after 72 hr. Data are means of duplicate determinations, and are representative of at least three independent experiments. […] Drugs were added simultaneously, and cell viability was determined after 72 hr. The data were then analyzed using the drug-drug interaction model of Bliss additivity^16 to define dose combinations that were synergistic (values >15; red), antagonistic (values <-15; blue), or without effect (-15<values<15; gray). (I) Model of JAK2/Bcl-2 family inhibitor synergy. JAK2^V617F constitutively phosphorylates and activates STAT3/5, thus enforcing expression of the transcriptional target, Mcl-1. Mcl-1 collaborates with Bcl-XL to oppose apoptosis and support viability.
Supplementary file pone.0114363.s006.xls: S6 Dataset Cells were treated in combination as indicated, and cell viability was determined using alamarBlue after 72 hr. Data are means of duplicate determinations, and are representative of at least three independent experiments. (XLS) Click here for additional data file.

HEL cells = assay: Cell viability of HEL cells after siRNA transfection and 72 hr ABT-263; format: cell-based
Method: Transfection of siRNAs was performed using Lipofectamine RNAiMAX according to the manufacturer’s recommendations. […] Caspase-3 activity was determined using the Caspase-GLO 3/7 Assay (Promega) in parallel with the CellTiter-GLO viability assay (Promega). The data are expressed as Caspase-3/7 activity divided by cell viability. […]

PKG1A = PKG1A (Homo sapiens, UniProt Q13976); assay: TR-FRET Kinome PKG1A; format: binding; conditions: PKG1A Millipore .05(Subs Conc)
Text: (§1) (XLS) Click here for additional data file.

EGFR = EGFR (Homo sapiens, UniProt P00533); assay: TR-FRET Kinome EGFR; format: binding; conditions: EGFR Invitrogen .05(Subs Conc)
Text: as §1

Mcl-1 mRNA = Mcl-1 mRNA abundance by qPCR in SET-2, UKE-1, HEL, MV4;11, K562 cells; format: cell-based; conditions: for MCL-1 % Control: treated vs non-treated (100.0); for MCL-1 Mean QTY: treated, normalised mRNA quantity by qPCR
Bcl-XL = Bcl-XL protein level by immunoblotting; format: cell-based; conditions: 24-hr time course
Method: SET-2, HEL, MV4;11, and K562 cells were obtained from ATCC and cultured as recommended. UKE-1 cells were purchased from Walter Fiedler (University of Hamburg). Cell lysates were either prepared using CHAPS lysis buffer (10 mM HEPES, pH 7.4, 150 mM NaCl, 1% CHAPS) or cell extraction buffer containing 1% Triton X-100, 0.1% SDS, and 0.5% deoxycholate. All buffers were supplemented with protease and phosphatase inhibitor cocktails prior to use.
Fig 1 Regulation of Mcl-1 and Bcl-XL by JAK2 ^V617F. […] Tyrosine phoshorylation of STAT3 and STAT5 was determined by immunoblotting. […] Constitutive tyrosine phosphorylation of STAT3 and STAT5 was determined by immunoblotting. […] Data represent means +/- standard deviation for two independent determinations each performed in triplicate. […] (G) Quantification of the data shown in (F). Data are expressed as the ratio of intensity of Mcl-1/β-actin for each time point. […] Data are means of duplicate samples and are representative of two independent experiments.

PKCzeta = PKCzeta (Homo sapiens, UniProt Q05513); assay: TR-FRET Kinome PKCzeta; format: binding; conditions: PKCzeta Millipore IVGN Tracer .05(Subs Conc)
Text: as §1

CAMKK2 = CAMKK2 (Homo sapiens, UniProt Q96RR4); assay: TR-FRET Kinome CAMKK2; format: binding; conditions: CAMKK2 Invitrogen .03(Subs Conc)
Text: as §1

Abl = Abl (Homo sapiens, UniProt P00519); assay: TR-FRET Kinome Abl; format: binding; conditions: Abl Invitrogen .025(Subs Conc)
Text: as §1

CDK11 = assay: TR-FRET Kinome CDK11; format: binding, human; conditions: CDK11 Abbott .025(Subs Conc)
Text: as §1

IGF1R = IGF1R (Homo sapiens, UniProt P08069); assay: TR-FRET Kinome IGF1R; format: binding; conditions: IGF1R Invitrogen .05(Subs Conc)
Text: as §1

[1] = test system: STAT3 binding to the Mcl-1 promoter; assay: ChIP of STAT3 binding to the Mcl-1 promoter (EZ-ChIP); format: cell-based; conditions: 1 μM, 6 hr; cell lines expressing JAK2 V617F, not in lines without this lesion
STK33 = STK33 (Homo sapiens, UniProt Q9BYT3); assay: TR-FRET Kinome STK33; format: binding; conditions: STK33 Invitrogen .005(Subs Conc)
Text: as §1

Chain of IGF1R (P08069 31-1367): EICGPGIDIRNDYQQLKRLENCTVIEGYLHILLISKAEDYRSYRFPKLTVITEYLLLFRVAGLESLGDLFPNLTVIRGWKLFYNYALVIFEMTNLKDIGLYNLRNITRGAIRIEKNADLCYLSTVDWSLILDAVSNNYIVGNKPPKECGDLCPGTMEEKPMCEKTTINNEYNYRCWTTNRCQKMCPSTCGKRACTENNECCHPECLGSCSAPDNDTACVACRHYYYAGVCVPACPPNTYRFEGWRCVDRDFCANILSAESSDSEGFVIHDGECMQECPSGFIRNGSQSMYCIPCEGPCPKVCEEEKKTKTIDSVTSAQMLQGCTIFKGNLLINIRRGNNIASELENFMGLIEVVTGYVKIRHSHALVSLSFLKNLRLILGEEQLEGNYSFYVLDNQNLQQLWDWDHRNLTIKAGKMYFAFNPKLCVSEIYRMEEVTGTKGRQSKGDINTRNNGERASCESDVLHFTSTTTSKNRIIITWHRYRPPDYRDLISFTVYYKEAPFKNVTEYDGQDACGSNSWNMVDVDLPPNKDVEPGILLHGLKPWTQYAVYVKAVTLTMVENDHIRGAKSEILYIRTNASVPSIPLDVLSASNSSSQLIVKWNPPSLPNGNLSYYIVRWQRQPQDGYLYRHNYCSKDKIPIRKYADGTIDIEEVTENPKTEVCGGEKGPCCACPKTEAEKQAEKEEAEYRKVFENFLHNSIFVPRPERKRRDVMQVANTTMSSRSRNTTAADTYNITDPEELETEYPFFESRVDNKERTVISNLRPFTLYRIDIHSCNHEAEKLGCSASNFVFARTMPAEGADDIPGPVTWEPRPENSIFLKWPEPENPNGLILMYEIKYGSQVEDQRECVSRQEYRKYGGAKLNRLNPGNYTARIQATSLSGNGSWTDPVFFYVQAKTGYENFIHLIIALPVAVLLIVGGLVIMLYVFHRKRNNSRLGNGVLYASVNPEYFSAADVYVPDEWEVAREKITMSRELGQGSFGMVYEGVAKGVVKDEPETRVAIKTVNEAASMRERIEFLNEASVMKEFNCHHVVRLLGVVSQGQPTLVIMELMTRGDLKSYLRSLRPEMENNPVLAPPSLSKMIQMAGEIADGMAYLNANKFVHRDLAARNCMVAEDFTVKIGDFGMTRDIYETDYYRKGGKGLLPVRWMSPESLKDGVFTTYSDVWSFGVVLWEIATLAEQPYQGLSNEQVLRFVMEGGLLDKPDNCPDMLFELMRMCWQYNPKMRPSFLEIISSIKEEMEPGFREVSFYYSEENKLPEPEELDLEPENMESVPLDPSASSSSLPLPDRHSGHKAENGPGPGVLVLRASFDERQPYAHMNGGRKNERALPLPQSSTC
Chain of STK33 (Q9BYT3 whole entry): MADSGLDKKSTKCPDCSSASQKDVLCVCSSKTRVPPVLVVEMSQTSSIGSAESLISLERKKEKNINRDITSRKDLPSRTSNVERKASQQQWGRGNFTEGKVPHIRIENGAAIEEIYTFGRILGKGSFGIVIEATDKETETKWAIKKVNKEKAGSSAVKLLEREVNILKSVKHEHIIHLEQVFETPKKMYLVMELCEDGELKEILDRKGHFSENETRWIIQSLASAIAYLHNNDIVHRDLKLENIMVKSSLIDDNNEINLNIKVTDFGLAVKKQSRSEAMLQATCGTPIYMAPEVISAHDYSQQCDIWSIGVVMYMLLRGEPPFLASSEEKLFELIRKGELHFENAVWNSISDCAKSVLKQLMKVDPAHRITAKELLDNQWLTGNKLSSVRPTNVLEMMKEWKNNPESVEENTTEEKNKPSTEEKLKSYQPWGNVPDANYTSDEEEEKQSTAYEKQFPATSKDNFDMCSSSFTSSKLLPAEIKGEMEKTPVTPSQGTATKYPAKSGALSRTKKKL
Chain of PKG1A (Q13976 whole entry): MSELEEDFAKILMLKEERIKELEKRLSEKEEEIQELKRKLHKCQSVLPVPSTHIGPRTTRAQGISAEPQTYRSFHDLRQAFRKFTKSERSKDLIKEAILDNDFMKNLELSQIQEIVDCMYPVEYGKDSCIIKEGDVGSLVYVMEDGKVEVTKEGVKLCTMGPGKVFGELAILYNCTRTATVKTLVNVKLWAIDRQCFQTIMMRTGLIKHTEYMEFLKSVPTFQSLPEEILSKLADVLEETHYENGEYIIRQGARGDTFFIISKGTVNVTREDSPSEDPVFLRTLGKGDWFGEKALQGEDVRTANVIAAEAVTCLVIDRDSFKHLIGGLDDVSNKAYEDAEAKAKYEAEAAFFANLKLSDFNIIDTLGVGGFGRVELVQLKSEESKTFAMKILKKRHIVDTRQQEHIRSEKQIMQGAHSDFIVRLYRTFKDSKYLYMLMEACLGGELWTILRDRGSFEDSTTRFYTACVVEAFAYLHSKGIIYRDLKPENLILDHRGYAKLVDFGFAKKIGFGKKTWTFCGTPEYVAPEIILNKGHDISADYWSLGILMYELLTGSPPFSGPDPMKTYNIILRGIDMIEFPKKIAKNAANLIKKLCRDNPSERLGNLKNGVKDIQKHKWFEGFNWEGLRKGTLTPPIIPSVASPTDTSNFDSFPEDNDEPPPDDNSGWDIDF
Chain of CAMKK2 (Q96RR4 whole entry): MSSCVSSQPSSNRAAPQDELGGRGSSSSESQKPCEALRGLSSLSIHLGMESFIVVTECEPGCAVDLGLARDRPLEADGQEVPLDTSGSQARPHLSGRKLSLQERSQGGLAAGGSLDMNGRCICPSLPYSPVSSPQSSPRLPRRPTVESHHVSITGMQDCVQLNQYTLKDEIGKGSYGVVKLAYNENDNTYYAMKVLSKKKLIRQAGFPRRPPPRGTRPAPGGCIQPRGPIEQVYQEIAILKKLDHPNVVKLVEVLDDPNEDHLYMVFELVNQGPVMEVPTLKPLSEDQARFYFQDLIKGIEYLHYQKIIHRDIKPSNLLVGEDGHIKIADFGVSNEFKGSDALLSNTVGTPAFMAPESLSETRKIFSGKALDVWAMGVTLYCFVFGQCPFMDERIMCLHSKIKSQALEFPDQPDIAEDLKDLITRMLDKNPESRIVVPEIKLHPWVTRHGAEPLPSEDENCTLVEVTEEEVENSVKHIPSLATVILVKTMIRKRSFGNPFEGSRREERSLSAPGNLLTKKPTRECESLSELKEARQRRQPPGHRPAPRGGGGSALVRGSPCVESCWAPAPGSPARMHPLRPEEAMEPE
Chain of Abl (P00519 whole entry): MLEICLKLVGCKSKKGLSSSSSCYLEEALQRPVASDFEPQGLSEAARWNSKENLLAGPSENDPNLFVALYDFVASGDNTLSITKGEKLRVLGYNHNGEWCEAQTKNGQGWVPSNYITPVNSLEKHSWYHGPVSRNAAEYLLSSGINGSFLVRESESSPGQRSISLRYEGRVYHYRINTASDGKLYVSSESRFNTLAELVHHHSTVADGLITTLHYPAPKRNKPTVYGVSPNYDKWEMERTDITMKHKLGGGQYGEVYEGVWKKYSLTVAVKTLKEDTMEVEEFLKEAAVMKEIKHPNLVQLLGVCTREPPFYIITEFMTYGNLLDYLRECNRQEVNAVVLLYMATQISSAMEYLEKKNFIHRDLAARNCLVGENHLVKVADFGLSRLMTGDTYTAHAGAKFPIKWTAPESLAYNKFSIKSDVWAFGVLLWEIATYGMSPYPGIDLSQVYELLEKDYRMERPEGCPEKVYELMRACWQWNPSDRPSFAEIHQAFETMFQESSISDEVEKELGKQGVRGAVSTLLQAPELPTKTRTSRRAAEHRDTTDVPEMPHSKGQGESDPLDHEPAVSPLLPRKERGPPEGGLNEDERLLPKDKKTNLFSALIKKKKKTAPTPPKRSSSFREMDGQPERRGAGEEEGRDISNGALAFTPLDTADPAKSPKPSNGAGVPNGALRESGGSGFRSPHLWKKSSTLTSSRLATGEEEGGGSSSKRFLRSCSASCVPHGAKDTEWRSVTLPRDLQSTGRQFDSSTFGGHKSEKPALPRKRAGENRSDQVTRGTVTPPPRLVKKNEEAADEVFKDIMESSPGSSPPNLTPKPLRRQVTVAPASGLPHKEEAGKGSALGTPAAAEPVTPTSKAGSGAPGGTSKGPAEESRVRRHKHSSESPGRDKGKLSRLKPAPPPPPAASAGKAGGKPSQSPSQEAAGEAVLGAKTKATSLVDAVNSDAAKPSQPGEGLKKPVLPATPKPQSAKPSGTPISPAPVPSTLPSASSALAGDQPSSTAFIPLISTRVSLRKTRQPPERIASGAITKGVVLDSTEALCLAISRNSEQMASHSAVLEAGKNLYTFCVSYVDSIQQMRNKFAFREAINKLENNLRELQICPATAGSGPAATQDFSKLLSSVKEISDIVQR
Chain of PKCzeta (Q05513 whole entry): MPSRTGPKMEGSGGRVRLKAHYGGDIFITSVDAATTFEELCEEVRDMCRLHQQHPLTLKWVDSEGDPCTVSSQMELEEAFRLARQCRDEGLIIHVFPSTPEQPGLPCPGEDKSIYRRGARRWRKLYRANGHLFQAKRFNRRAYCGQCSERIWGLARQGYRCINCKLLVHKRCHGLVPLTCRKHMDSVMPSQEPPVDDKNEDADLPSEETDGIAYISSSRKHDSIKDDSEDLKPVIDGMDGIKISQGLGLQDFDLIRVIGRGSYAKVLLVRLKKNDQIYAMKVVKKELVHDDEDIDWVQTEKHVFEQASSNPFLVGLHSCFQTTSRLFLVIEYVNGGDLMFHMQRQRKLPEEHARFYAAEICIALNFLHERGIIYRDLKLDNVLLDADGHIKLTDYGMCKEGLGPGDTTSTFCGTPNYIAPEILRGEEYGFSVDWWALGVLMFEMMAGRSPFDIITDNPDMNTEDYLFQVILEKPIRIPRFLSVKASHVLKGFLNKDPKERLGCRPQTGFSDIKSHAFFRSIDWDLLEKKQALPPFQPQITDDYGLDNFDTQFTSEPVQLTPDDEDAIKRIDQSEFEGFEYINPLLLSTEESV

## CC1(C)CCC(c2ccc(Cl)cc2)=C(CN2CCN(c3ccc(C(=O)NS(=O)(=O)c4ccc(N[C@H](CCN5CCOCC5)CSc5ccccc5)c(S(=O)(=O)C(F)(F)F)c4)cc3)CC2)C1 [ABT-263]
MV4;11 cells; ABT-263 0.003 uM
  Viability (% Inhibiton): 0%
MV4;11 cells; ABT-263 0.01 uM
  Viability (% Inhibiton): 1%
MV4;11 cells; ABT-263 0.03 uM
  Viability (% Inhibiton): 0%
MV4;11 cells; ABT-263 0.1 uM
  Viability (% Inhibiton): 23%
MV4;11 cells; ABT-263 0.3 uM
  Viability (% Inhibiton): 30%
MV4;11 cells; ABT-263 1 uM
  Viability (% Inhibiton): 29%
HEL cells; Unt., ABT-263 0.003 uM
  Cell Viability (% Inhibiton): 0%
HEL cells; Unt., ABT-263 0.01 uM
  Cell Viability (% Inhibiton): 0%
HEL cells; Unt., ABT-263 0.03 uM
  Cell Viability (% Inhibiton): 3%
HEL cells; Unt., ABT-263 0.1 uM
  Cell Viability (% Inhibiton): 37%
HEL cells; Unt., ABT-263 0.3 uM
  Cell Viability (% Inhibiton): 94%
HEL cells; Unt., ABT-263 1 uM
  Cell Viability (% Inhibiton): 97%
HEL cells; siMcl1-1, ABT-263 0.003 uM
  Cell Viability (% Inhibiton): 0%
HEL cells; siMcl1-1, ABT-263 0.01 uM
  Cell Viability (% Inhibiton): 0%
HEL cells; siMcl1-1, ABT-263 0.03 uM
  Cell Viability (% Inhibiton): 0%
HEL cells; siMcl1-1, ABT-263 0.1 uM
  Cell Viability (% Inhibiton): 40%
HEL cells; siMcl1-1, ABT-263 0.3 uM
  Cell Viability (% Inhibiton): 97%
HEL cells; siMcl1-1, ABT-263 1 uM
  Cell Viability (% Inhibiton): 100%
HEL cells; siMcl1-2, ABT-263 0.003 uM
  Cell Viability (% Inhibiton): 0%
HEL cells; siMcl1-2, ABT-263 0.01 uM
  Cell Viability (% Inhibiton): 21%
HEL cells; siMcl1-2, ABT-263 0.03 uM
  Cell Viability (% Inhibiton): 38%
HEL cells; siMcl1-2, ABT-263 0.1 uM
  Cell Viability (% Inhibiton): 79%
HEL cells; siMcl1-2, ABT-263 0.3 uM
  Cell Viability (% Inhibiton): 100%
HEL cells; siMcl1-2, ABT-263 1 uM
  Cell Viability (% Inhibiton): 100%
HEL cells; siMcl1-3, ABT-263 0.003 uM
  Cell Viability (% Inhibiton): 0%
HEL cells; siMcl1-3, ABT-263 0.01 uM
  Cell Viability (% Inhibiton): 37%
HEL cells; siMcl1-3, ABT-263 0.03 uM
  Cell Viability (% Inhibiton): 65%
HEL cells; siMcl1-3, ABT-263 0.1 uM
  Cell Viability (% Inhibiton): 90%
HEL cells; siMcl1-3, ABT-263 0.3 uM
  Cell Viability (% Inhibiton): 100%
HEL cells; siMcl1-3, ABT-263 1 uM
  Cell Viability (% Inhibiton): 100%
HEL cells; siMcl1-4, ABT-263 0.003 uM
  Cell Viability (% Inhibiton): 0%
HEL cells; siMcl1-4, ABT-263 0.01 uM
  Cell Viability (% Inhibiton): 58%
HEL cells; siMcl1-4, ABT-263 0.03 uM
  Cell Viability (% Inhibiton): 85%
HEL cells; siMcl1-4, ABT-263 0.1 uM
  Cell Viability (% Inhibiton): 94%
HEL cells; siMcl1-4, ABT-263 0.3 uM
  Cell Viability (% Inhibiton): 100%
HEL cells; siMcl1-4, ABT-263 1 uM
  Cell Viability (% Inhibiton): 100%
HEL cells; siNT-1, ABT-263 0.003 uM
  Cell Viability (% Inhibiton): 0%
HEL cells; siNT-1, ABT-263 0.01 uM
  Cell Viability (% Inhibiton): 0%
HEL cells; siNT-1, ABT-263 0.03 uM
  Cell Viability (% Inhibiton): 7%
HEL cells; siNT-1, ABT-263 0.1 uM
  Cell Viability (% Inhibiton): 30%
HEL cells; siNT-1, ABT-263 0.3 uM
  Cell Viability (% Inhibiton): 93%
HEL cells; siNT-1, ABT-263 1 uM
  Cell Viability (% Inhibiton): 98%

## CC(C)(C)c1nc2c3cc[nH]c(=O)c3c3cc(F)ccc3c2[nH]1 [JAKi-I, JAK inhibitor I]
PKG1A
  Ki: > 3.63 µM
EGFR
  Ki: > 1.67 µM
Mcl-1 mRNA; HEL cells
  MCL-1 % Control: 59.2674%
  MCL-1 Mean QTY: 25.0
Mcl-1 mRNA; K562 cells
  MCL-1 % Control: 89.9219%
  MCL-1 Mean QTY: 50.9
Mcl-1 mRNA; MV411 cells
  MCL-1 Mean QTY: 30.6
Mcl-1 mRNA; SET2 cells
  MCL-1 % Control: 37.995%
  MCL-1 Mean QTY: 47.0
Mcl-1 mRNA; following JAK inhibition, 6 hr
  Mcl-1 transcript level: sharply declined
Bcl-XL
  Bcl-XL protein level: sharply declined
PKCzeta
  Ki: > 5.24 µM
CAMKK2
  Ki: > 3.1 µM
Abl
  Ki: > 2.6 µM
CDK11
  Ki: > 3.24 µM
IGF1R
  Ki: > 2.65 µM
[1]
  STAT3 binding to the MCL1 promoter: disrupted
STK33
  Ki: 0.0302 µM
